Test results taken from patent publication US7220414B2, “Degradable polyacetal polymers” (A.P. Pharma, Inc., priority 2000, dated 2007).

Test system: red blood cell
Test: red blood cell (RBC) lysis assay
Description: The degradation products were obtained by dissolving polyacetal 22 in phosphate buffered saline (PBS), adjusting the pH to 1–2 by the addition of HCl to allow the polyacetal to degrade, then adding a small amount of NaOH to readjust the pH to 7.4.

red blood cell (RBC) lysis: did not display RBC lysis
Substance: Dextran
